What was measured:
Type in all cases: cell-based
[1] = system: human invasive breast cancer cells (MDA-MB-231); test: Cytotoxicity test (MTT assay) on MDA-MB-231 cells; conditions: for IC50: MDA-MB-231, 72 h exposure, MTT assay, human invasive breast cancer cells; for SC, selectivity coefficient, IC50 MCF-10A/IC50 MDA-MB-231: ratio of 72 h IC50 values, MCF-10A over MDA-MB-231
Description: (§1) MDA-MB-231 breast adenocarcinoma cells (ATCC® HTB-26™), MCF-10a human mammary epithelial cells (ATCC® CRL-10317™) and HEK293 human embryonic kidney cells (ATCC® CRL-1573™) were obtained from ATCC (Middlesex, UK), the A2780 human ovarian carcinoma cell line was obtained from the European Collection of Cell Cultures (catalogue number 93112519, Salisbury, U.K.). All cell culture media were purchased from Life Technologies (Zug, Switzerland). A2780 cells were cultured in RPMI-1640 medium (Gibco, GlutaMax), while MDA-MB-231 and HEK293 cells were cultured in Dulbecco's Modified Eagle Medium (DMEM, Gibco, GlutaMax) supplemented with 10% fetal bovine serum (FBS, Sigma-Aldrich, Buchs, Switzerland) and 1% penicillin/streptomycin (Life Technologies, Zug, Switzerland). MCF-10A were cultured in DMEM/F12 medium containing 10% horse serum and 1% antibiotics, supplemented with 10 μg/mL insulin, 20 μg/mL hydrocortisone, 20 ng/mL epidermal growth factor and 100 ng/mL cholera toxin (all from Sigma Aldrich, Buchs, Switzerland). Cells were incubated in a CO2 incubator with 5% CO2 and 100% relative humidity at 37° C. MTT (MTT=3-(4,5-dimethyl-2-thiazolyl)-2,5-diphenyl-2H-tetrazolium bromide) was purchased from Calbiochem (Zug, Switzerland). Cell viability was determined by the MTT assay. The absorption was read using a SpectraMax M52 microplate reader (Molecular Devices, Sunnyvale, Calif., USA).
(§2) Cells were seeded in 96-well plates as monolayers with 100 μL of cell suspension (approximately 5000 cells) per well and preincubated for 24 h in medium supplemented with 10% FBS. With the exception of dacarbazine, all compounds were dissolved in DMSO. In the case of dacarbazine, an aqueous stock solution of the monocitrate was prepared in situ and immediately used (light sensitivity). The stock solutions were serially diluted in the culture medium to the appropriate concentration, to give a final DMSO concentration of no higher than 0.5%. 100 μL of the compound solution was added to each well, and the plates were incubated for 72 h. Subsequently, MTT (5 mg/mL solution) was added to the cells and the plates were incubated for a further 2 h. The culture medium was aspirated and the purple formazan crystals formed by the mitochondrial dehydrogenase activity of vital cells were dissolved in DMSO. The optical density, directly proportional to the number of surviving cells, was quantified at 590 nm using a multiwell plate reader, and the fraction of surviving cells was calculated from the absorbance of untreated control cells. Evaluation is based on means from at least two independent experiments, each comprising triplicates per concentration level.

[2] = system: human ovarian cancer cells (A2780); test: Cytotoxicity test (MTT assay) on A2780 cells; conditions: 72 h exposure
Description: as §1, §2

[3] = system: non-cancer human embryonic kidney cells (HEK293); test: Cytotoxicity test (MTT assay) on HEK293 cells; conditions: 72 h exposure
Description: as §1, §2

[4] = system: human mammary epithelial cells (MCF-10A); test: Cytotoxicity test (MTT assay) on MCF-10A cells; conditions: 72 h exposure
Description: as §1, §2

Row | SMILES | IC50 [1] | IC50 [2] | IC50 [3] | IC50 [4] | SC, selectivity coefficient, IC50 MCF-10A/IC50 MDA-MB-231 [1]
1 | CC(C)N(N=NC#Cc1ccccc1)C(C)C [Compound 1, 3,3-Diisopropyl-1-(phenylethynyl)triaz-1-ene] | > 500 µM | 56 ± 4 µM | 44 ± 11 µM | 116 ± 2 µM | –
2 | CC(C)N(N=NC#CC(C)(C)C)C(C)C [Compound 2, 1-(3,3-Dimethylbut-1-ynyl)-3,3-diisopropyltriaz-1-ene] | 176 ± 60 µM | 160 ± 40 µM | 125 ± 5 µM | 299 ± 43 µM | 1.7
3 | CC(C)N(C)N=NC#CC(C)(C)C [Compound 4, 1-(3,3-Dimethylbut-1-ynyl)-3-isopropyl-3-methyltriaz-1-ene] | 70 ± 10 µM | 32 ± 4 µM | 29 ± 4 µM | 192 ± 12 µM | 2.7
4 | CN(C)N=NC#CC(C)(C)C [Compound 5, 1-(3,3-Dimethylbut-1-ynyl)-3,3-dimethyltriaz-1-ene] | 38 ± 3 µM | 22 ± 3 µM | 19 ± 2 µM | 52 ± 11 µM | 1.4
5 | CCCCC#CN=NN(C(C)C)C(C)C [Compound 6, 1-(Hex-1-ynyl)-3,3-diisopropyltriaz-1-ene] | 199 ± 21 µM | 143 ± 29 µM | 165 ± 65 µM | 254 ± 52 µM | 1.2
6 | COCC#CN=NN(C)C(C)C [Compound 9, 3-Isopropyl-1-(3-methoxyprop-1-ynyl)-3-methyltriaz-1-ene] | 32 ± 4 µM | 20 ± 3 µM | 14 ± 1 µM | 208 ± 49 µM | 6.5
7 | CC(C)N(C)N=NC#CCN(C)C [Compound 10, 3-(3-Isopropyl-3-methyltriaz-1-enyl)-N,N-dimethylprop-2-yn-1-amine] | 14 ± 2 µM | 34 ± 4 µM | 21 ± 5 µM | 86 ± 4 µM | 6.1
8 | COCC#CN=NN(C)C [Compound 14, 1-(3-Methoxyprop-1-ynyl)-3,3-dimethyltriaz-1-ene] | 72 ± 9 µM | 43 ± 6 µM | 24 ± 4 µM | 177 ± 23 µM | 2.5
9 | CN(C)CC#CN=NN(C)C [Compound 15, 3-(3,3-Dimethyltriaz-1-enyl)-N,N-dimethylprop-2-yn-1-amine] | 45 ± 15 µM | 47 ± 3 µM | 15 ± 4 µM | 113 ± 7 µM | 2.4

From patent US10221198B2, “Preparation and medical use of triazenes” (Ecole Polytechnique Federale De Lausanne (EPFL), priority 2014, dated 2019)
